Test results as given in BindingDB's records for doi:10.1021/jm0408316 (University of Genoa, 2005).
Where a name gives a salt, the structure may show the parent alone.

biological target: not listed separately; test: Inhibition of benzylamine binding to Benzylamine oxidase of porcine serum

Question: For `CC(C)(C)Sc1cncc(SC(C)(C)C)c1CN`, which IC50 is on record?
Answer: 1.6 µM

Question: For `CCSc1cncc(SCC)c1CN`, which IC50 is on record?
Answer: 0.13 µM

Question: With `NCc1c(OCCO)cncc1OCCO` [2-{[4-(aminomethyl)-5-(2-hydroxyethoxy)pyridin-3-yl]oxy}ethanol dihydrochloride trihydrate] as the compound, how does the IC50 read?
Answer: 3.2 µM

Question: With `CNc1cncc(N(C)C)c1CN` [4-(aminomethyl)-5-(dimethyl-lambda~5~-azanyl)-N-methylpyridin-3-amine dihydrochloride dihydrate] as the compound, how does the IC50 read?
Answer: 0.44 µM

Question: With `CCCNc1cncc(N(C)CCC)c1CN` [4-(aminomethyl)-5-[methyl(propyl)-lambda~5~-azanyl]-N-propylpyridin-3-amine dihydrochloride] as the compound, how does the IC50 read?
Answer: 350 µM

Question: Which IC50 does the source give for `NCc1ccncc1N(C1CCCC1)C1CCCC1` [4-(aminomethyl)-N,N-dicyclopentylpyridin-3-amine dihydrochloride] here?
Answer: 100 µM

Question: With `NCc1ccncc1NCC1CCCCC1` [4-(aminomethyl)-N-(cyclohexylmethyl)pyridin-3-amine dihydrochloride hydrate] as the compound, how does the IC50 read?
Answer: 5.6 µM

Question: Which IC50 does the source give for `NCc1ccncc1NC1CCCCCC1` [4-(aminomethyl)-N-cycloheptylpyridin-3-amine dihydrochloride hydrate] here?
Answer: 79 µM

Question: Which IC50 does the source give for `NCc1ccncc1NC1CCCC1` [4-(aminomethyl)-N-cyclopentylpyridin-3-amine dihydrochloride] here?
Answer: 16 µM

Question: For `NCc1ccncc1NC1CC1` [4-(aminomethyl)-N-cyclopropylpyridin-3-amine dihydrochloride hydrate], which IC50 is on record?
Answer: > 100 µM

Question: Which IC50 does the source give for `CCNc1cncc(N(C)CC)c1CN` [4-(aminomethyl)-N-ethyl-5-[ethyl(methyl)-lambda~5~-azanyl]pyridin-3-amine dihydrochloride] here?
Answer: 0.02 µM

Question: Which IC50 does the source give for `CCNc1cnccc1CN` [4-(aminomethyl)-N-ethylpyridin-3-amine dihydrochloride] here?
Answer: 2 µM

Question: Which IC50 does the source give for `CC(C)Nc1cncc(N(C)C(C)C)c1CN` [4-(aminomethyl)-N-isopropyl-5-[isopropyl(methyl)-lambda~5~-azanyl]pyridin-3-amine dihydrochloride] here?
Answer: > 0.1 µM

Question: Which IC50 does the source give for `CC(C)Nc1cnccc1CN` [4-(aminomethyl)-N-isopropylpyridin-3-amine dihydrochloride] here?
Answer: 100 µM

Question: With `CNc1cncc(NC)c1CN` [4-(aminomethyl)-N-methyl-5-(methyl-lambda~5~-azanyl)pyridin-3-amine dihydrochloride] as the compound, how does the IC50 read?
Answer: 1.7 µM

Question: Which IC50 does the source give for `CNc1cnccc1CN` [4-(aminomethyl)-N-methylpyridin-3-amine dihydrochloride] here?
Answer: 8 µM

Question: For `NCc1ccncc1N` [4-(aminomethyl)pyridin-3-amine dihydrochloride], which IC50 is on record?
Answer: 16 µM

Question: Which IC50 does the source give for `NCc1c(OCCCCO)cncc1OCCCCO` [4-{[4-(aminomethyl)-5-(4-hydroxybutoxy)pyridin-3-yl]oxy}butan-1-ol dihydrochloride] here?
Answer: 0.15 µM

Question: Which IC50 does the source give for `CCOc1cncc(OCC)c1CN` [(3,5-diethoxypyridin-4-yl)methylamine dihydrochloride] here?
Answer: 0.17 µM

Question: For `CNc1ccccc1CN` [N-[2-(aminomethyl)phenyl]-N-methylamine dihydrochloride], which IC50 is on record?
Answer: > 100 µM

Question: For `CCOc1cncc(OCc2ccccc2)c1CN` [[3-(benzyloxy)-5-ethoxypyridin-4-yl]methylamine dihydrochloride], which IC50 is on record?
Answer: 5 µM

biological target: Diamine oxidase (Sus scrofa); test: Inhibition of putrescine binding to against Diamine oxidase of porcine kidney

Question: Which IC50 does the source give for `CC(C)(C)Sc1cncc(SC(C)(C)C)c1CN` here?
Answer: > 1000 µM

Question: For `CNc1cncc(N(C)C)c1CN` [4-(aminomethyl)-5-(dimethyl-lambda~5~-azanyl)-N-methylpyridin-3-amine dihydrochloride dihydrate], which IC50 is on record?
Answer: 0.061 µM

Question: For `CC(C)Nc1cncc(N(C)C(C)C)c1CN` [4-(aminomethyl)-N-isopropyl-5-[isopropyl(methyl)-lambda~5~-azanyl]pyridin-3-amine dihydrochloride], which IC50 is on record?
Answer: 1 µM

Question: Which IC50 does the source give for `CNc1cncc(NC)c1CN` [4-(aminomethyl)-N-methyl-5-(methyl-lambda~5~-azanyl)pyridin-3-amine dihydrochloride] here?
Answer: 0.12 µM
